From US7160859B2, “Mst1 modulation of apoptosis in cardiac tissue and modulators of Mst1 for treatment and prevention of cardiac disease” (University of Medicine & Dentistry of New Jersey, priority 2002, dated 2007)

Assays:
Mst1 = test: In gel myelin basic protein (MBP) kinase assay of cardiac myocyte lysates; format: cell-based, rat; details: in the presence of DEVD-CHO, 100 μM
Procedure: FIGS. 1A, 1B, 1C, 1D and 1E depict Mst1 activity assessed on treatment of cardiac myocytes with chelerythrine (Chele) or calyculin A. (A) Cardiac myocytes were treated with indicated concentrations of chelerythrine for 1 h. Cell lysates were subjected to in-gel myelin basic protein (MBP) kinase assay as well as immunoblotting with anti-cleaved caspase-3 antibody. Results are representative of more than five experiments. (B) Cardiac myocytes were treated with chelerythrine (Chele). In the right panel, myocytes were transduced with either control virus or adenovirus harboring XIAP 48 hours before Chele application. Cell lysates were subjected with immune complex in-gel MBP kinase assays, using anti-Mst1 polyclonal antibody (pAb-15). The activity of cleaved Mst1 is shown. (C) Cardiac myocytes were treated with Chele for the indicated durations. […]
Primary cultures of ventricular cardiac myocytes were prepared from 1-day-old Crl: (WI) BR-Wistar rats (Charles River Laboratories, Wilmington, Mass.) as described previously (34). […] We obtained myocyte cultures in which more than 95% were myocytes, as assessed by immunofluorescence staining with a monoclonal antibody against sarcomeric myosin (MF20). […]

cardiac myocytes [1] = test: Cell Death Detection ELISA: cytoplasmic accumulation of mono- and oligo-nucleosomes (DNA fragmentation); format: cell-based, rat
Procedure: Primary cultures of ventricular cardiac myocytes were prepared from 1-day-old Crl: (WI) BR-Wistar rats (Charles River Laboratories, Wilmington, Mass.) as described previously (34). A cardiac myocyte rich fraction was obtained by centrifugation through the discontinuous Percoll gradient as described (34). Cells were cultured in the cardiac myocyte culture medium containing Dulbecco's modified Eagle medium (DMEM)/F12 supplemented with 5% horse serum, 4 μg/mL transferrin, 0.7 ng/mL sodium selenite (GIBCO), 2 g/L bovine serum albumin (fraction V), 3 mmol/L pyruvic acid, 15 mmol/L HEPES, 100 μmol/L ascorbic acid, 100 μg/mL ampicillin, 5 μg/mL linoleic acid and 100 μmol/L 5-bromo-2′-deoxyuridine (Sigma). We obtained myocyte cultures in which more than 95% were myocytes, as assessed by immunofluorescence staining with a monoclonal antibody against sarcomeric myosin (MF20). Culture media were changed to serum-free at 24–36 h and then subjected to adenovirus transduction. Myocytes were cultured in the serum-free condition for 48 h before experiments.
Histone-associated DNA fragments were quantified by the Cell Death Detection ELISA (Roche, Indianapolis, Ind.) according to the manufacturer's instruction as described (35) with minor modification for sample preparation. In brief, myocytes were rinsed with PBS three times in order to remove nucleosomes leaked out from necrotic cells and then incubated with the lysis buffer for 30 min. The supernatant containing mono- and oligonucleosomes from the cytoplasmic fraction of apoptotic cells was used for further analyses. DNA fragmentation of the tissue samples was determined by DNA laddering assays. Genomic DNA containing small molecular weight fragments was isolated and analyzed by agarose gel electrophoresis as described (36).

[2] = test system: Neonatal rat cardiac myocytes; test: Phenylephrine-induced hypertrophy of cultured cardiac myocytes; format: cell-based; details: PE 10 μM 48 h, LacZ virus-transduced myocytes
From the text: We have previously and above shown that mammalian sterile-20 like kinase 1 (Mst1) plays an important role in mediating cardiac myocyte apoptosis in response to ischemia/reperfusion and doxorubicin treatment. Cardiac specific overexpression of Mst1 in transgenic mice (Tg-Mst1) increases cardiac myocyte apoptosis in the heart and the mice develop dilated cardiomyopathy (DCM) and congestive heart failure within 3 months of age. […] Lack of compensatory cardiac myocyte hypertrophy may adversely affect LV function of Tg-Mst1 because operation of the Frank Starling mechanism could be less efficient at the individual cell level. This study was undertaken in order to elucidate if transient expression of Mst1 has a direct anti-hypertrophic effects in cultured cardiac myocytes in vitro. Neonatal rat cardiac myocytes were transduced with adenoviral vectors (10 MOI) in serum-free conditions for 48 h and then treated with phenylephrine (PE, 10 μM) for 48 h. Phenylephrine stimulates hypertrophy of cardiac myocytes in normal animals. Treatment of LacZ virus-transduced myocytes with PE caused a 2.4 fold increase in the cell size and a 1.7 fold increase in protein/DNA content. […] In summary, Mst1 has a direct anti-hypertrophic effect upon PE-treated cultured cardiac myocytes, possibly affecting other signaling mechanisms, including ERKs.

cardiac myocytes [3] = test: Morphology of cardiac myocytes (cell shrinkage, cell death); format: cell-based, rat; details: within 6 h
caspase-3 = test: Immunoblot with anti-cleaved caspase-3 antibody; format: cell-based, rat; details: Doxo, 6 and 24 hour time points
From the text: For analyses of Mst1, cells were lysed in a Lysis Buffer A, containing 25 mmol/L NaCl, 25 mmol/L Tris (pH 7.4), 1 mmol/L Na3VO4, 10 mmol/L NaF, 10 mmol sodium pyrophosphate, 0.5 mmol/L EGTA, 0.5 mmol/L AEBSF, 0.5 μ/mL leupeptin, 0.5 μ/mL aprotinin. Samples containing the equal amount of protein were subjected to SDS-PAGE. Proteins were transferred onto polyvinylidene fluoride microporous membranes (Bio Rad, Hercules, Calif.) and probed with primary antibodies. We used anti-Mst1 monoclonal antibody (Transduction Laboratory, Lexington, Ky.) for detection of the carboxyl terminus of Mst1. Affinity purified rabbit polyclonal antibody was raised against animo-terminal ETVQLRNPPRRQLKC (pAb-15) (SEQ ID NO:4) (BioSource International, Camarillo, Calif.) for detection of the amino-terminus of Mst1. Blots were then probed by horseradish peroxidase-conjugated anti-mouse IgG or anti-rabbit IgG (Cell Signaling Technolog Inc., Beverly, Mass.). Antigen-antibody complexes were visualized by the enhanced chemiluminescence system (ECL, Amersham/Pharmacia, Piscataway, N.J.). Polyclonal antibodies raised against cleaved caspase-3 (Cell Signaling Technology Inc.) were used to determine activation of caspase-3, as described (35).

caspase-9 = test: Western blot of caspase-9 cleavage; format: cell-based, rat; details: Doxo, 6 and 24 hour time points

What does the source list for DEVD-CHO?
increased activities and cleavage of Mst1 by overexpression of Mst1 (Mst1): attenuated; increases in DNA fragmentation by wild type Mst1 (cardiac myocytes [1]; in the presence of DEVD-CHO, 100 μM): inhibited

With COC[C@@H]([C@H](O)[C@H](O)C(=O)NCC[C@H](C)c1nc(/C=C/C[C@@H]2O[C@]3(C[C@@H](O)[C@@H]2C)O[C@H]([C@H](C[C@H](O)[C@H](C)[C@H](O)[C@H](C)/C=C(C)/C(C)=C/C=C/C(C)=C\C#N)OC)[C@H](OP(=O)(O)O)C3(C)C)co1)N(C)C [calyculin A] as the compound, how does the “increase in cytoplasmic accumulation of oligo- and mono-nucleosomes” value (cardiac myocytes [1]; vs untreated, n=4, p<0.05) read?
The value was 4.3±1.4 fold.

What about the “DNA fragmentation by calyculin A” value (cardiac myocytes [1]; with control virus) of the same compound?
Its value is 5.6 fold.

How did the “increase in protein/DNA content” value [2] turn out when CNC[C@H](O)c1cccc(O)c1 [PE, phenylephrine] was run?
Its value is 1.7 fold.

What about the “increase in the cell size” value [2] of the same compound?
The value was 2.4 fold.

Which results are given for COc1cccc2c1C(=O)c1c(O)c3c(c(O)c1C2=O)C[C@@](O)(C(=O)CO)C[C@@H]3O[C@H]1C[C@H](N)[C@H](O)[C@H](C)O1 [Dox, Doxorubicin]?
OD405 value (DNA fragmentation ELISA) (cardiac myocytes [1]; 6 h treatment with 0.5 μM Dox, control virus): 0.69; concentrations that dose-dependently induced cell shrinkage (cardiac myocytes [3]): 0.1 to 3 µM; activation (cleavage) of caspase-3 (caspase-3): time dependent manner; activation (cleavage) of caspase-9 (caspase-9): time dependent manner
